The record followed here is PMC5814047, “Peptidic inhibitors of insulin-degrading enzyme with potential for dermatological applications discovered via phage display” (PLoS ONE, 2018).

Assay [1] concerns the target T1, IDE (Homo sapiens, UniProt P14735).
T1 construct: made in house; host or cells: bacteria
T1 sequence (P14735 1-1019): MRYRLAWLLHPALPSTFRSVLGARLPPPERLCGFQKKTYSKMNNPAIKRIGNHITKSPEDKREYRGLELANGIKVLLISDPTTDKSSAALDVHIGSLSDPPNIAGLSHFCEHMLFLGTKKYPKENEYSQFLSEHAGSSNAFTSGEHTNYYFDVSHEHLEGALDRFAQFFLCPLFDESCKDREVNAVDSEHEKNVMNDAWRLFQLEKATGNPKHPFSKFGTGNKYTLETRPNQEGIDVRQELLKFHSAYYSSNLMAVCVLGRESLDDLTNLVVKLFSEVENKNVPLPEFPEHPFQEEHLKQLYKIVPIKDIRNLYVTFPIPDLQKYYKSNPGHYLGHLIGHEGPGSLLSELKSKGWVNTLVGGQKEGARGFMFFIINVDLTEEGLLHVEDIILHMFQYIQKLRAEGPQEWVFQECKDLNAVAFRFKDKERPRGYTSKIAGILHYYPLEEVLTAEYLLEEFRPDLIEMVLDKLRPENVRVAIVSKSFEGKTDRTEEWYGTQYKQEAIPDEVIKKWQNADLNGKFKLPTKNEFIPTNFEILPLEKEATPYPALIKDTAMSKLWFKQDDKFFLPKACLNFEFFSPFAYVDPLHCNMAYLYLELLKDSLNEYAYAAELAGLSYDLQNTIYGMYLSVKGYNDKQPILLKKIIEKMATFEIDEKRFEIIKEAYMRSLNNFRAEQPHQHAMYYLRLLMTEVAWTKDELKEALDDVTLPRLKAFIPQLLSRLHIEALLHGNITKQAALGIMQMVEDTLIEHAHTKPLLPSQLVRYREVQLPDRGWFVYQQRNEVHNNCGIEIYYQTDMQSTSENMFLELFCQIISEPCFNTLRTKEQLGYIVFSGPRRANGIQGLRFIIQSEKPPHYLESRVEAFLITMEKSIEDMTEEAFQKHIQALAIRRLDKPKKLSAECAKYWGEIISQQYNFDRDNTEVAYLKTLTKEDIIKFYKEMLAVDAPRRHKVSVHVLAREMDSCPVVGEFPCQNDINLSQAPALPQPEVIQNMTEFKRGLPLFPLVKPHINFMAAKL
Briefly: biochemical. The conditions noted are these: for IC50: FRET1; for IC50 <500 uM?: initial test at 500 uM; for remaining activity at 500 µM: individual replicates, read-out: Percent activity at 500 uM, Replicate 1-4; for Ki: substrate FRET1 5 μM, Ki from IC50 with the Cheng-Prusoff equation, read-out: Ki FRET1. Here is the method:
The six selected peptide sequences (C7C-1, C7C-2, 12–1, 12–2, 12–3 and 12–4) were synthesized, together with a variety of modifications, yielding a total of 25 peptides (Table 1). […] Other modifications included N-terminal acetylation and C-terminal amidation, included to mimic the charge state of the peptides when incorporated in the phage coat protein (Table 1).
(§1) IDE activity was quantified by monitoring the degradation of Mca-[…](Dnp) (FRET1, 5 μM), fluoresceinated and biotinylated amyloid ß-protein (FAßB; 500 nM) or recombinant human insulin (50 nM) in PBS supplemented with 0.05% BSA. […] In vitro activity assays incorporated recombinant human IDE (1 nM) purified from bacteria. For quantitation of insulin degradation in primary murine skin fibroblasts, cells (1 x 10^5/well) were plated in 96-well plates and maintained in DMEM supplemented with 10% fetal bovine serum (FBS), 2mM glutamine, penicillin and streptomycin. After addition of insulin (10 nM or 100 nM), samples of conditioned medium were removed daily and quickly frozen, then insulin levels were quantified in parallel by ELISA according to manufacturer’s recommendations (Crystal Chem, Downers Grove, IL, USA). Assessment of the activity of P12-3A against a variety of matrix-metalloproteases was conducted using the Matrix Metalloproteinase (MMP) Inhibitor Profiling Kit, Fluorometric RED (Enzo Life Sciences, Inc., Farmingdale, NY, USA) according to manufacturer’s recommendations using the broad-spectrum MMP inhibitor, NNGH, as a positive control.

In assay [2] the target is T1, IDE. Nature of the assay: biochemical. The conditions noted are these: for IC50: from initial test at 10 uM using insulin (100 nM), read-out: IC50 (summary of results, listed in Table 1); for Ki: substrate recombinant human insulin 50 nM, Ki from IC50 with the Cheng-Prusoff equation. The text has this:
The six selected peptide sequences (C7C-1, C7C-2, 12–1, 12–2, 12–3 and 12–4) were synthesized, together with a variety of modifications, yielding a total of 25 peptides (Table 1). For the 12-mer peptides, we synthesized variants of the parent peptides truncated at one or both termini, to test whether the entire sequence was necessary or not, in the hope that shorter, and thus less expensive, sequences might be effective. Other modifications included N-terminal acetylation and C-terminal amidation, included to mimic the charge state of the peptides when incorporated in the phage coat protein (Table 1). To assess the extent to which these peptide sequences inhibit IDE, we quantified their potency in protease activity assays using recombinant human IDE and two different substrates: FRET1, a fluorogenic peptide, and recombinant human insulin.
IDE activity was quantified by monitoring the degradation of Mca-[…](Dnp) (FRET1, 5 μM), fluoresceinated and biotinylated amyloid ß-protein (FAßB; 500 nM) or recombinant human insulin (50 nM) in PBS supplemented with 0.05% BSA. FRET1 degradation was measured by changes in fluorescence (λex = 340 nm, λem = 420 nm); FAßB degradation was monitored by fluorescence polarization (λex = 488 nm, λem = 525 nm), as described; and insulin degradation was quantified by ELISA. In vitro activity assays incorporated recombinant human IDE (1 nM) purified from bacteria. For quantitation of insulin degradation in primary murine skin fibroblasts, cells (1 x 10^5/well) were plated in 96-well plates and maintained in DMEM supplemented with 10% fetal bovine serum (FBS), 2mM glutamine, penicillin and streptomycin. After addition of insulin (10 nM or 100 nM), samples of conditioned medium were removed daily and quickly frozen, then insulin levels were quantified in parallel by ELISA according to manufacturer’s recommendations (Crystal Chem, Downers Grove, IL, USA). Assessment of the activity of P12-3A against a variety of matrix-metalloproteases was conducted using the Matrix Metalloproteinase (MMP) Inhibitor Profiling Kit, Fluorometric RED (Enzo Life Sciences, Inc., Farmingdale, NY, USA) according to manufacturer’s recommendations using the broad-spectrum MMP inhibitor, NNGH, as a positive control.

Assay [3] has as its target T1, IDE. Nature of the assay: Vulnerability of peptides to degradation by IDE: 0 vs 4 h pre-incubation, then FRET1 assay. It is filed as biochemical. The following applies: for Ki: Cheng-Prusoff from IC50, FRET1 KM 10 uM, substrate 5 uM; for remaining activity at 0.12207 µM / remaining activity at 0.488281 µM / remaining activity at 1.95312 µM / remaining activity at 7.8125 µM / remaining activity at 31.25 µM / remaining activity at 125 µM / remaining activity at 500 µM: 4 h, relative to DMSO-only controls, read-out: Percent Activity (normalized initial velocity of FRET1 hydrolysis); for remaining activity at 0.12207 µM: Cmpd 0.12207 uM; for remaining activity at 0.488281 µM: Cmpd 0.488281 uM; for remaining activity at 1.95312 µM: Cmpd 1.95312 uM; for remaining activity at 7.8125 µM: Cmpd 7.8125 uM; for remaining activity at 31.25 µM: Cmpd 31.25 uM; for remaining activity at 125 µM: Cmpd 125 uM; for remaining activity at 500 µM: Cmpd 500 uM; for IC50: FRET1 assay. Here is the method: as §1

Setting [4] is: dose-response, read-out: IC50s, Mean.
Where [5] appears, read: initial test, percent of initial velocity relative to DMSO-only controls.
Where [6] appears, read: 4-hr incubation, individual runs.
The mark [7] stands for this setting: 0-hr incubation (immediately after combining enzyme and peptide), individual runs, read-out: IC50s.
The mark [8] stands for this setting: 4-hr incubation, individual replicates, read-out: IC50s.
[9] abbreviates: 4-hr incubation, mean of 2 replicates, read-out: IC50s, Mean.

Values joined by “and” are separate entries in the source; they are usually repeats but may differ in a detail not shown here. Equal entries are not always repeated. Ends that are not written are not given here. Some results are limits rather than exact numbers.

For the compound `CC(=O)N[C@@H](Cc1c[nH]c2ccccc12)C(=O)N[C@@H](CC(=O)O)C(=O)N[C@@H](Cc1ccccc1)C(=O)N[C@@H](CCCNC(=N)N)C(=O)N[C@@H](CCC(N)=O)C(=O)N[C@@H](Cc1c[nH]c2ccccc12)C(=O)N[C@@H](Cc1c[nH]c2ccccc12)C(=O)N[C@@H](CCC(N)=O)C(N)=O` [P12-1D], the IC50 on IDE [1] (setting [4]) was 210 µM; on IDE [2] it was > 10 µM; on IDE [3] (setting [7]) it was 138 µM and 282 µM; on IDE [3] (setting [8]), 791 µM and 755 µM; at IDE [3] (setting [9]), 773 µM. On IDE [1], the “IC50 <500 uM?” value was “YES”. Moreover, the figures for the remaining activity at 500 µM on IDE [1] (setting [5]), on IDE [1] (judged as IC50 <100 uM?) and at IDE [3] (setting [6]) were 13.4%, 61.2% and 20.6%, respectively. The Ki (commonly a measure of affinity in units of concentration, obtained from inhibition or displacement) was > 100 µM on IDE [1], > 10 µM at IDE [2] and 515 µM at IDE [3] (4-hr incubation). Further, the remaining activity at 0.12207 µM at IDE [3] (setting [6]) is 102%. Besides, the remaining activity at 0.488281 µM on IDE [3] (setting [6]) turned out to be 91.2%. The remaining activity at 1.95312 µM at IDE [3] (setting [6]) was found to be 99.3%. The remaining activity at 7.8125 µM at IDE [3] (setting [6]) was determined as 97.1%. For the same compound, the remaining activity at 31.25 µM on IDE [3] (setting [6]) is 90.2%. For the same compound, the remaining activity at 125 µM at IDE [3] (setting [6]) is 47.6%.
As to Ac-FRQWWQPS [P12-1C], the IC50 is 208 µM at IDE [1] (setting [4]); > 10 µM on IDE [2]; 150 µM and 254 µM and 220 µM on IDE [3] (setting [7]); 482 µM and 500 µM on IDE [3] (setting [8]); 491 µM on IDE [3] (setting [9]). The “IC50 <500 uM?” value against IDE [1] is “YES”. Besides, the values for the remaining activity at 500 µM at IDE [1] (setting [5]), at IDE [1] (judged as IC50 <100 uM?) and at IDE [3] (setting [6]) were 12.6%, 33.8% and 2.79%, respectively. The Ki at IDE [1] is 139 ± 21 µM; on IDE [2] it was > 10 µM; at IDE [3] (0-hr incubation) it was 139 µM; on IDE [3] (4-hr incubation), 327 µM. Besides, at IDE [3] (setting [6]), the remaining activity at 0.12207 µM turned out to be 100%. In addition, the remaining activity at 0.488281 µM on IDE [3] (setting [6]) was 104%. Further, on IDE [3] (setting [6]), the remaining activity at 1.95312 µM was 105%. The remaining activity at 7.8125 µM at IDE [3] (setting [6]) worked out at 104%. In addition, at IDE [3] (setting [6]), the remaining activity at 31.25 µM was 78.2%. The remaining activity at 125 µM at IDE [3] (setting [6]) is 24.3%.
With WSPISGKF-NH2 [P12-4B], the IC50 at IDE [1] (listed in Table 1, read-out: IC50, summary of results of the initial test) was > 500 µM; at IDE [2] it was > 10 µM. The figures for the remaining activity at 500 µM on IDE [1] (setting [5]) and on IDE [1] (judged as IC50 <100 uM?) were 76.6% and 86.6%, respectively. For the same compound, the inhibition constant Ki on IDE [1] was ≥ 500 µM; at IDE [2], ≥ 10 µM.
